Counter-ions that a name gives are not always drawn. Like-named read-outs stand apart in the source and are kept apart here. Some results are limits rather than exact numbers.

The target in experiment [1] is T1, Factor Xa (Homo sapiens, UniProt P00742). Particulars: background statement; cited from earlier work.
For experiment [2], the target named is T1, Factor Xa. Nature of the experiment: In vitro inhibition of purified enzymes, Ki determination: Factor Xa (hydrolysis of S-2765). The class given is biochemical. The arrangement: purchased Enzyme Research Laboratories (South Bend, Ind.). The conditions noted are these: purified activated human Factor X, substrate S-2765, 37° C., pH 7.5; read-out: KI FXa. From the text:
(§1) Reagents: All buffer salts were obtained from Sigma Chemical Company (St. Louis, Mo.), and were of the highest purity available. The enzyme substrate, S-2765 (Z-D-Arg-Gly-Arg-p-nitroanilide) was obtained from DiaPharma (West Chester, Ohio). N-succinyl-Ala-Ala-Pro-Arg-p-nitroanilide (BACHEM L-1720) was obtained from BACHEM (King of Prussia, Pa.). N-p-Tosyl-Gly-Pro-Lys-p-nitroanilide (Sigma T6140), N-succinyl-Ala-Ala-Pro-Phe-p-nitroanilide (Sigma S7388), N-CBZ-Val-Gly-Arg-p-nitroanilide (Sigma C7271) was obtained from Sigma and N-succinyl-Ala-Ala-Pro-Val-p-nitroanilide (BACHEM L-1770) was obtained from BACHEM (King of Prussia, Pa.).
(§2) Human α-thrombin and human Factor Xa were obtained from Enzyme Research Laboratories (South Bend, Ind.). Human trypsin was obtained from Calbiochem (La Jolla, Calif.). Human plasmin was obtained from Enzyme Research Laboratories (South Bend, Ind.). Bovine a-chymotrypsin (Sigma C4129) and human kidney cell urokinase (Sigma U5004) was obtained from Sigma. Human leukocyte elastase was obtained from Elastin Products (Pacific, Mo.).
(§3) Ki Determinations: All assays are based on the ability of the test compound to inhibit the enzyme-catalyzed hydrolysis of a peptide p-nitroanilide substrate. In a typical Ki determination, substrate is prepared in DMSO, and diluted into an assay buffer consisting of 50 mM HEPES, pH 7.5, 200 mM NaCl, 0.05% n-octyl b-d-glucopyranoside. The final concentrations for each of the substrates are listed below. In general, substrate concentrations are lower than the experimentally determined value for Km. Test compounds are prepared as 10 mM solutions in DMSO. Dilutions are prepared in DMSO yielding 7 final concentrations encompassing a 200-fold concentration range. Enzyme solutions are prepared at the concentrations listed below in assay buffer.
(§4) Reactions were initiated by the addition of a […] aliquot of enzyme and the absorbance increase at 405 nm is recorded for 15 minutes. Data corresponding to less than 10% of the total substrate hydrolysis were used in the calculations. The ratio of the velocity (rate of change in absorbance as a function of time) for a sample containing no test compound is divided by the velocity of a sample containing test compound, and is plotted as a function of test compound concentration. The data are fit to a linear regression, and the value of the slope of the line calculated. The inverse of the slope is the experimentally determined apparent Ki value (Ki app). The Ki is calculated from the Ki app using the Ki factor specific for the assay, where Ki=Ki app×Ki factor, or Ki=Ki app×(1/ (1+[S]/Km)).
Substrate solutions were prepared at a concentration of 107 mM in assay buffer. Final DMSO concentration was 3.3%. Purified activated human Factor X was diluted into assay buffer to a concentration of 16 nM. Final reagent concentrations were: [Factor Xa]=0.53 nM, [S-2765]=100 mM.

The target of experiment [3] is T2, human α-thrombin (Homo sapiens, UniProt P00734).
T2 construct: Purified human a-thrombin was diluted into assay buffer; purchased Enzyme Research Laboratories (South Bend, Ind.)
Nature of the experiment: In vitro inhibition of purified enzymes, Ki determination: thrombin (hydrolysis of N-succinyl-Ala-Ala-Pro-Arg-p-nitroanilide). The conditions noted are these: substrate N-succinyl-Ala-Ala-Pro-Arg-p-nitroanilide, 37° C., pH 7.5. The class given is biochemical.
Excerpt: as §1, §2, §3, §4
Thrombin: Thrombin activity was assessed as the ability to hydrolyze the substrate N-succinyl-Ala-Ala-Pro-Arg-p-nitroanilide (Km=320 mM, Ki factor=0.76). Substrate solutions were prepared at a concentration of 107 mM in assay buffer. Final DMSO concentration was 4.3%. Purified human a-thrombin was diluted into assay buffer to a concentration of 33 nM. Final reagent concentrations were: [thrombin]=1.1 nM, [substrate N-succinyl-Ala-Ala-Pro-Arg-p-nitroanilide]=100 mM.

The target in experiment [4] is T3, human trypsin.
T3 construct: Purified human trypsin was diluted into assay buffer to a concentration of 10 nM
Nature of the experiment: In vitro inhibition of purified enzymes, Ki determination: trypsin (hydrolysis of S-2765). The class given is biochemical. Particulars: substrate S-2765, 37° C., pH 7.5.
Excerpt: as §1, §2, §3, §4
Trypsin: Trypsin activity was assessed as the ability to hydrolyze the substrate S-2765 (Z-D-Arg-Gly-Arg-p-nitroanilide, Km=61 mM, Ki factor=0.50). Substrate solutions were prepared at a concentration of 64 mM in assay buffer. Final DMSO concentration was 3.3%. Purified human trypsin was diluted into assay buffer to a concentration of 10 nM. Final reagent concentrations were: [Trypsin]=0.33 nM, [S-2765]=60 mM.

T1 sequence (P00742 235-488 limits assumed): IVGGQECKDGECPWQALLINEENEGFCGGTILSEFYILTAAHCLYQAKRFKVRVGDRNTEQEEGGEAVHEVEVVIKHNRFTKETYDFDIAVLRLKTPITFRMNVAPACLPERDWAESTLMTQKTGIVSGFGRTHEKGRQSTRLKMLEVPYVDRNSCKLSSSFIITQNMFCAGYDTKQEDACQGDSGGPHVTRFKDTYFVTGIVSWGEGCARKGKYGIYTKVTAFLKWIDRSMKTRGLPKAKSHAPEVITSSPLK
T1 sequence (P00742 41-179 partner limits assumed): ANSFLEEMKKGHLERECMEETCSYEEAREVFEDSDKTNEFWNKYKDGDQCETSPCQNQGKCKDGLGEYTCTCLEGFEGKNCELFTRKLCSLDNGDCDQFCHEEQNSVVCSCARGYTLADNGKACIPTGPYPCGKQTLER

For “tick anticoagulant peptide (YNRLCIKPRDWIDECDSNEGGERAYFRNGKGGCDSFWICPEDHTGADYYSSYRDCFNACI; UniProt P17726 1-60, looked up) [TAP]”, the Ki in experiment [1] was approximately 0.5 nM.
Regarding `COc1cccc(-n2nc(C)c3ccc(-c4ccc(N5CCCCC5=O)cc4)c(F)c32)c1` [Example 4, 1-{4-[7-fluoro-1-(3methoxy-phenyl)-3-methyl-1H-indazol-6-yl]-phenyl}-piperidin-2-one], the Ki in experiment [2] came out at 660 nM.
Take `Cc1nn(-c2cccc(CN)c2)c2c(F)c(-c3ccc(-c4ccccc4S(C)(=O)=O)cc3F)ccc12` [Example 82, 3-[7-Fluoro-6-(3-fluoro-2′-methanesulfonyl-biphenyl-4-yl)-3-methyl-indazol-1-yl]-benzylamine]: the Ki was more than 15200 nM in experiment [3], 1500 nM in experiment [4] and 45 nM in experiment [2].
`Cc1nn(-c2cccc(C(=N)N)c2)c2c(F)c(-c3ccc(N4CCCCC4=O)cc3F)ccc12` [Example 75, 3-{7-Fluoro-6-[2-fluoro-4-(2-oxo-piperidin-1-yl)-phenyl]-3-methyl-indazol-1-yl}-benzamidine]: the Ki in experiment [3] is 1600 nM; in experiment [4], 140 nM; in experiment [2], 1 nM.
As to antistasin [ATS], the Ki in experiment [1] is 0.05 nM.
Take `CN(C)Cc1cnccc1-c1ccc(-c2ccc3c(C(N)=O)nn(-c4ccc5onc(N)c5c4)c3c2F)c(F)c1` [Example 66, 1-(3-Amino-benzo[d]isoxazol-5-yl)-6-[4-(3-dimethylaminomethyl-pyridin-4-yl)-2-fluoro-phenyl]-7-fluoro-1H-indazole-3-carboxylic acid amide]: the Ki was more than 15200 nM in experiment [3], more than 10000 nM in experiment [4] and 2 nM in experiment [2].
The corresponding values for `Cc1nn(-c2ccc3ccnc(N)c3c2)c2c(F)c(-c3ccc(-c4ccccc4S(C)(=O)=O)cc3F)ccc12` [Example 93, 7-[7-Fluoro-6-(3-fluoro-2′-methanesulfonyl-biphenyl-4-yl)-3-methyl-indazol-1-yl]-isoquinolin-1-ylamine] are more than 15200 nM, more than 10000 nM and 46 nM.
The corresponding values for `Cc1nn(-c2ccc3onc(N)c3c2)c2c(F)c(-c3ccc(N4CCCCC4=O)cc3)ccc12` [Example 86, 1-{4-[1-(3-Amino-benzo[d]isoxazol-5-yl)-7-fluoro-3-methyl-1H-indazol-6-yl]-phenyl}-piperidin-2-one] are more than 15200 nM, more than 10000 nM and 48 nM.
In the same order, the values of `Cc1nn(-c2cccc(CN)c2)c2c(F)c(-c3ccc(C#Cc4ccc5nc(N)sc5c4)cc3)ccc12` [Example 15, 6{4-1-(3-Aminomethyl-phenyl)-7-fluoro-3-methyl-1H-indazol]-phenylethynyl-benzothiazol-2-ylamine] are more than 15200 nM, 1590 nM and 2820 nM.
For the compound `Cc1nn(-c2ccc3onc(N)c3c2)c2c(F)c(-c3ccc(-n4ccccc4=O)cc3F)ccc12` [Example 25, 1-{4-[1-(3-Amino-benzo[a]isoxazol-5-yl)-7-fluoro-3-methyl-1H-indazol-6-yl]-3-fluoro-phenyl}-1H-pyridin-2-one], the figures for the Ki in experiment [3], in experiment [4] and in experiment [2] were more than 15200 nM, more than 10000 nM and 40 nM, respectively.
In the same order, the values of `NC(=O)c1nn(-c2ccc3onc(N)c3c2)c2c(F)c(-c3ccc(N4CCOCC4=O)cn3)ccc12` [Example 43, 1-(3-Amino-benzo[d]isoxazol-5-yl)-7-fluoro-6-[5-(3-oxo-morpholin-4-yl)-pyridin-2-yl]-1H-indazole-3-carboxylic acid amide; methanesulfonic acid salt] are more than 15200 nM, more than 10000 nM and 6 nM.
Consider `O=C1CCCCN1c1ccc(-c2ccc3c(C(F)(F)F)nn(-c4cccc(Cl)c4)c3c2F)c(F)c1` [Example 95, 1-{4-[1-(3-Chloro-phenyl)-7-fluoro-3-trifluoromethyl-1H-indazol-6-yl]-3-fluoro-phenyl}-piperidin-2-one], for which the Ki in experiment [3] is more than 15200 nM; in experiment [4], more than 10000 nM; in experiment [2] it was 340 nM.
The corresponding values for `Cc1nn(-c2cccc(CN)c2)c2c(F)c(-c3ccc(N4CCCC4=O)cc3)ccc12` [Example 7, 1-{4-[1-(3-Aminomethyl-phenyl)-7-fluoro-1-3-methyl-1H-indazol-6-yl]-phenyl}-pyrolidin-2-one] are more than 15200 nM, 700 nM and 220 nM.
Take `CN(C)CCCN(c1ccncc1)c1ccc(-c2ccc3c(C(N)=O)nn(-c4ccc5onc(N)c5c4)c3c2F)c(F)c1` [Example 59, 1-(3-Amino-benzo[d]isoxazol-5-yl)-6-{4-[(3-dimethylamino-propyl)-pyridin-4-yl-amino]-2-fluoro-phenyl}-7-fluoro-1H-indazole-3-carboxamide dimesylate salt]: the figures for the Ki in experiment [3], in experiment [4] and in experiment [2] were more than 15200 nM, more than 10000 nM and 5 nM, respectively.
In the same order, the values of `Cc1nn(-c2cccc(CN)c2)c2c(F)c(-c3ccc(N(C)c4ccncc4)cc3F)ccc12` [Example 35] are more than 15200 nM, 2900 nM and 33 nM.
Regarding `Cc1nn(-c2cccc(CN)c2)c2c(F)c(-c3ccc(N4CCCCC4=O)cc3)ccc12` [Example 6, 1-{4-[1-(3-Aminomethyl-phenyl)7-fluoro-1-3-methyl-1H-indazol-6-yl]-phenyl}-piperidin-2-one], the Ki in experiment [3] is more than 15200 nM; in experiment [4], more than 10000 nM; in experiment [2], 120 nM.

The record behind these values is patent US7446210B2, “Factor Xa compounds” (Janssen Pharmaceutica N.V., priority 2004, dated 2008).
